The values that follow come from PMC5915369 (Anticancer research, 2015).

Data set [1] concerns HIF1α transcriptional activity. It counts as cell-based. To be noted: Homo sapiens, 24 h, read-out: Menu IC50 ± SEM.
The next data set has as its system platelet aggregation. Conditions: could lead to internal bleeding side effects; cited from earlier work.

One may read the IC50 as the concentration needed to halve the response being measured. As for `CN1C(=O)[C@]2(Cc3cn([C@]45C[C@@]67SS[C@@](CO)(C(=O)N6[C@H]4Nc4ccccc45)N(C)C7=O)c4ccccc34)SS[C@@]1(CO)C(=O)N2C` [Chetomin], the IC50 in data set [1] was 0.04 ± 0.01 µM. In the case of `OCc1ccc(-c2nn(Cc3ccccc3)c3ccccc23)o1` [YC-1, 3-(5′-hydroxymethyl-2′-furyl)-1-benzyl indazole], the “inhibition of platelet aggregation” value with platelet aggregation was “strong inhibition of platelet aggregation”.
